In one data set the test system is reserpine-induced ptosis. Kind of data set: Test for anti-reserpine activity (inhibition of reserpine-induced ptosis). The data set is classed as in vivo, male mice of the ddy strain. As to conditions: Mus musculus, po, read-out: Reserpine inhibition (percentage inhibition of reserpine-induced ptosis); for inhibition in vivo at 50 mg/kg: 50 mg/kg orally, reserpine 2 mg/kg s.c., sum of observations at 90, 120 and 180 min, groups of three mice. The procedure:
1 Test for anti-reserpine activity
The test animals used were male mice of the ddy strain, each weighing 23-25 g. Each compound was tested on a group of three such mice. Each test compound was employed in the form of a solution or suspension in a physiological saline solution containing 0.3% w/v carboxymethylcellulose. The test employed was a partial modification of the method of Rubin et al. [J. Pharmacol. Exptl.
At each observation, each mouse was assigned from 0 to 3 points corresponding to the degree of ptosis, as follows:
0 points: eyes completely open;
1 point: eyes about one third closed;
2 points: eyes about two thirds closed;
3 points: eyes completely closed.
For each mouse, the number of points from all three observations were added together and the percentage inhibition of reserpine-induced ptosis was calculated from the following formula: [formula] in which:
Po =total number of points from three observations of an animal to which reserpine alone was administered; and
Pt =total number of points from three observations of an animal to which reserpine and the test compound were administered.

The next data set relates to effects of d-amphetamine. Kind of data set: Potentiation of d-Amphetamine effects. Type of data set: in vivo, male rats of the Wistar strain. As to conditions: 10 mg/kg orally, 60 min before d-amphetamine sulphate 2.5 mg/kg s.c.; observations 30-240 min; groups of 4 rats. The procedure:
2. Potentiation of d-Amphetamine effects
The test animals used in this experiment were male rats of the Wistar strain, each weighing from 250 to 300 g. The rats were employed in groups of 4 animals each, for each test. The test compound was employed in the form of a solution or suspension in physiological saline containing 0.3% w/v carboxymethylcellulose.
Each rat was placed in an observation cage and then given orally the solution or suspension of the test compound in an amount of 10 mg of test compound per kilogram body weight; 60 minutes later, 2.5 mg/kg of d-amphetamine sulphate were injected subcutaneously. The rats were observed 30 minutes, 60 minutes, 90 minutes, 120 minutes, 150 minutes, 180 minutes and 240 minutes after the injection of the d-amphetamine sulphate. At each observation, each animal was assigned from 0 to 5 points according to its mobility, as follows:
1 point: slight moving around;
3 points: sniffing appears;
4 points: licking appears;
5 points: biting appears.
The percentage potentiation of the effects of d-amphetamine was then calculated from the following formula: [formula] where:
P'o =total number of points from all observations of an animal to which d-amphetamine alone was administered; and
P't =total number of points from all seven observations of an animal to which both the test compound and d-amphetamine were administered.

Another data set can be described thus: Acute toxicity test. Type of data set: in vivo, male mice of the ddy strain. As to conditions: for Mortality (deaths/animals tested): 7 days observation. As for the experimental part: The test animals used were male mice of the ddy strain, each weighing from 21 to 25 g. To each animal was administered orally a single dose of the test compound in the amount shown in Table 2; the animals were then placed under observation for 7 days after administration. The results are reported in Table 2 as "Mortality", where the numerator indicates the number of deaths in the observation period and the denominator indicates the number of animals tested with the particular test compound at the particular dose.

The nature of data set [1]: Antidepressant activity (general statement). As to conditions: in vivo.

Counter-ions that a name gives are not always drawn.

As for `Clc1ccc(Nc2ncnc3c2CCC3)cc1` [Compound No. 3, 4-(4-Chloroanilino)-6,7-dihydro-5H-cyclopenta[d]pyrimidine], in the data set with reserpine-induced ptosis, the inhibition in vivo at 50 mg/kg came to 82.3%.
As for `Cc1ncnc(Nc2ccc(Br)cc2)c1C` [Compound No. 28, 4-(4-Bromoanilino)-5,6-dimethylpyrimidine], the “d-Amphetamine potentiation (percentage potentiation of the effects of d-amphetamine)” value with effects of d-amphetamine is on record as 79%. In the data set on reserpine-induced ptosis, the inhibition in vivo at 50 mg/kg came out at 61.1%. The “Mortality (deaths/animals tested)” value in “Acute toxicity test” (single oral dose 1000 mg/kg) is 0/5.
For `CCCCc1c(C)ncnc1Nc1ccc(Br)cc1` [compound 69, 4-(4-Bromoanilino)-5-n-butyl-6-methylpyrimidine], the “d-Amphetamine potentiation (percentage potentiation of the effects of d-amphetamine)” value in the data set on effects of d-amphetamine came out at 94%.
As to `Cc1ncnc(Nc2ccc(Cl)cc2)c1C` [Compound No. 25, 4-(4-Chloroanilino)-5,6-dimethylpyrimidine], in the data set with effects of d-amphetamine, the “d-Amphetamine potentiation (percentage potentiation of the effects of d-amphetamine)” value was determined as 75%. For the same compound, the inhibition in vivo at 50 mg/kg with reserpine-induced ptosis was 61.1%.
With `c1ccc(Nc2ncnc3c2CCC3)cc1` [Compound No. 2, 4-Anilino-6,7-dihydro-5H-cyclopenta[d]pyrimidine hydrochloride], the inhibition in vivo at 50 mg/kg with reserpine-induced ptosis was 68.7%.
In the case of `N#Cc1ccc(Nc2ncnc3c2CCC3)cc1` [Compound No. 14, 4-(4-Cyanoanilino)-6,7-dihydro-5H-cyclopenta[d]pyrimidine], the inhibition in vivo at 25 mg/kg in the data set with reserpine-induced ptosis is 85%.
As to `Cc1ncnc(Nc2ccc(C(F)(F)F)cc2)c1C` [Compound No. 38, 5,6-Dimethyl-4-(4-trifluoromethylanilino)pyrimidine], in the data set on reserpine-induced ptosis, the inhibition in vivo at 50 mg/kg came out at 68.8%.
Consider `CN(C)CCCN1c2ccccc2CCc2ccccc21` [Imipramine hydrochloride, reference compound], for which the “d-Amphetamine potentiation (percentage potentiation of the effects of d-amphetamine)” value in the data set with effects of d-amphetamine amounted to 77%. The inhibition in vivo at 50 mg/kg with reserpine-induced ptosis is 72.2%. Also, the “Mortality (deaths/animals tested)” value in “Acute toxicity test” (single oral dose 500 mg/kg) is recorded as 3/5. In addition, the “Mortality: deaths on day 3” value in “Acute toxicity test” (single oral dose 500 mg/kg, on day 3) amounted to 1. In addition, the “Mortality: deaths within 1 hour” value in “Acute toxicity test” (single oral dose 500 mg/kg, within 1 hour) came to 2.
On to `CCc1ccc(Nc2ncnc3c2CCC3)cc1` [compound 9, 4-(4-Ethylanilino)-6,7-dihydro-5H-cyclopenta[d]pyrimidine], for which the inhibition in vivo at 50 mg/kg with reserpine-induced ptosis was determined as 82.3%.
As for `Cc1ncnc(Nc2ccccc2)c1Br` [4-anilino-5-bromo-6-methylpyrimidine], the antidepressant activity result in data set [1] is given as “no antidepressant activity”.
On to `Cc1ncnc(Nc2ccc(I)cc2)c1C` [compound 32, 4-(4-Iodoanilino)-5,6-dimethylpyrimidine], for which the “d-Amphetamine potentiation (percentage potentiation of the effects of d-amphetamine)” value in the data set with effects of d-amphetamine worked out at 76%. For the same compound, in the data set with reserpine-induced ptosis, the inhibition in vivo at 50 mg/kg worked out at 43.8%.
`Cc1ncnc(Nc2ccc(C(C)C)cc2)c1C` [Compound No. 47, 4-(4-Isopropylanilino)-5,6-dimethylpyrimidine]: in the data set with reserpine-induced ptosis, the inhibition in vivo at 50 mg/kg was 70.6%.
For the compound `FC(F)(F)c1ccc(Nc2ncnc3c2CCC3)cc1` [compound 11, 4-(4-Trifluoromethylanilino)-6,7-dihydro-5H-cyclopenta[d]pyrimidine], the inhibition in vivo at 50 mg/kg with reserpine-induced ptosis turned out to be 62.5%.
Regarding `Brc1ccc(Nc2ncnc3c2CCC3)cc1` [Compound No. 5, 4-(4-Bromoanilino)-6,7-dihydro-5H-cyclopenta[d]pyrimidine], the inhibition in vivo at 50 mg/kg in the data set with reserpine-induced ptosis is 75.6%. Further, the “Mortality (deaths/animals tested)” value in “Acute toxicity test” (single oral dose 500 mg/kg) and in the data set “Acute toxicity test” (single oral dose 1000 mg/kg) was 0/5 in each case.
